From ChEMBL document CHEMBL4706583, “2-Anilinoquinoline based arylamides as broad spectrum anticancer agents with B-RAF/C-RAF kinase inhibitory effects: Design, synthesis, in vitro cell-based and oncogenic kinase assessments” (Eur J Med Chem, 2020)
Calls of active or inactive are those of the source. The calls are words filed in the database; no cut-off is given here.

Tests used:
[1] = test system: Panel NCI-60 (60 carcinoma cell lines); assay: Growth inhibition of human Panel NCI-60 (60 carcinoma cell lines) cells at 10 uM measured after 48 hrs by SRB assay relative to control; format: functional; conditions: read-out: GI
[2] = test system: LOX IMVI; assay: Growth inhibition of human LOX IMVI cells at 10 uM measured after 48 hrs by SRB assay relative to control; format: functional; conditions: read-out: GI
[3] = test system: HL-60(TB); assay: Growth inhibition of human HL-60(TB) cells measured after 48 hrs by SRB assay; format: functional
[4] = test system: MOLT-4; assay: Growth inhibition of human MOLT-4 cells measured after 48 hrs by SRB assay; format: functional
[5] = test system: SR; assay: Growth inhibition of human SR cells measured after 48 hrs by SRB assay; format: functional
[6] = test system: EKVX; assay: Growth inhibition of human EKVX cells measured after 48 hrs by SRB assay; format: functional
[7] = test system: HOP-92; assay: Growth inhibition of human HOP-92 cells measured after 48 hrs by SRB assay; format: functional; conditions: for CC50: read-out: LC50 (the source's name)
[8] = test system: COLO 205; assay: Growth inhibition of human COLO 205 cells measured after 48 hrs by SRB assay; format: functional
[9] = test system: HT-29; assay: Growth inhibition of human HT-29 cells measured after 48 hrs by SRB assay; format: functional; conditions: for CC50: read-out: LC50 (the source's name)
[10] = test system: KM12; assay: Growth inhibition of human KM12 cells measured after 48 hrs by SRB assay; format: functional
[11] = test system: SF-539; assay: Growth inhibition of human SF-539 cells measured after 48 hrs by SRB assay; format: functional
[12] = test system: SNB-75; assay: Growth inhibition of human SNB-75 cells measured after 48 hrs by SRB assay; format: functional
[13] = test system: U-251; assay: Growth inhibition of human U-251 cells measured after 48 hrs by SRB assay; format: functional
[14] = test system: LOX IMVI; assay: Growth inhibition of human LOX IMVI cells measured after 48 hrs by SRB assay; format: functional; conditions: for CC50: read-out: LC50 (the source's name)
[15] = test system: M14; assay: Growth inhibition of human M14 cells measured after 48 hrs by SRB assay; format: functional; conditions: for CC50: read-out: LC50 (the source's name)
[16] = test system: SK-MEL-2; assay: Growth inhibition of human SK-MEL-2 cells measured after 48 hrs by SRB assay; format: functional
[17] = test system: SK-MEL-28; assay: Growth inhibition of human SK-MEL-28 cells measured after 48 hrs by SRB assay; format: functional
[18] = test system: OVCAR-3; assay: Growth inhibition of human OVCAR-3 cells measured after 48 hrs by SRB assay; format: functional
[19] = test system: SK-OV-3; assay: Growth inhibition of human SK-OV-3 cells measured after 48 hrs by SRB assay; format: functional
[20] = test system: 786-0; assay: Growth inhibition of human 786-0 cells measured after 48 hrs by SRB assay; format: functional
[21] = test system: CAKI-1; assay: Growth inhibition of human CAKI-1 cells measured after 48 hrs by SRB assay; format: functional
[22] = test system: RXF 393; assay: Growth inhibition of human RXF 393 cells measured after 48 hrs by SRB assay; format: functional
[23] = test system: TK-10; assay: Growth inhibition of human TK-10 cells measured after 48 hrs by SRB assay; format: functional
[24] = test system: UO-31; assay: Growth inhibition of human UO-31 cells measured after 48 hrs by SRB assay; format: functional
[25] = test system: MDA-MB-231; assay: Growth inhibition of human MDA-MB-231 cells measured after 48 hrs by SRB assay; format: functional
[26] = test system: Hs-578T; assay: Growth inhibition of human Hs-578T cells measured after 48 hrs by SRB assay; format: functional
[27] = test system: T47D; assay: Growth inhibition of human T47D cells measured after 48 hrs by SRB assay; format: functional
[28] = Cytotoxicity against human L132 cells assessed as cell viability at 1 uM measured after 48 hrs by EZ-Cytox assay relative to control; format: cell-based; conditions: read-out: Activity
[29] = Cytotoxicity against African green monkey Vero cells assessed as cell viability at 3 uM measured after 48 hrs by EZ-Cytox assay relative to control; format: cell-based; conditions: chlorocebus sabaeus, read-out: Activity
[30] = Cytotoxicity against African green monkey Vero cells assessed as cell viability at 10 uM measured after 48 hrs by EZ-Cytox assay relative to control; format: cell-based; conditions: chlorocebus sabaeus, read-out: Activity
[31] = test system: HCT-116; assay: Induction of apoptosis in human HCT-116 cells assessed as viable cells at 1.25 uM measured after 24 hrs by Annexin-V Alexa Fluor488/propidium iodide staining based flow cytometry (reference value: 88.1%); format: functional; conditions: read-out: Activity
[32] = test system: HCT-116; assay: Induction of apoptosis in human HCT-116 cells assessed as early apoptotic cells at 2.5 uM measured after 24 hrs by Annexin-V Alexa Fluor488/propidium iodide staining based flow cytometry (reference value: 6.3%); format: functional
[33] = test system: HCT-116; assay: Induction of apoptosis in human HCT-116 cells assessed as early apoptotic cells at 5 uM measured after 24 hrs by Annexin-V Alexa Fluor488/propidium iodide staining based flow cytometry (reference value: 6.3%); format: functional
[34] = test system: HCT-116; assay: Induction of apoptosis in human HCT-116 cells assessed as necrotic cells at 5 uM measured after 24 hrs by Annexin-V Alexa Fluor488/propidium iodide staining based flow cytometry (reference value: 4.6%); format: functional
[35] = test system: HCT-116; assay: Induction of apoptosis in human HCT-116 cells assessed as early apoptotic cells at 1.25 uM measured after 48 hrs by Annexin-V Alexa Fluor488/propidium iodide staining based flow cytometry (reference value: 7.7%); format: functional
[36] = test system: HCT-116; assay: Induction of apoptosis in human HCT-116 cells assessed as late apoptotic cells at 1.25 uM measured after 48 hrs by Annexin-V Alexa Fluor488/propidium iodide staining based flow cytometry (reference value: 2.2%); format: functional
[37] = test system: HCT-116; assay: Induction of apoptosis in human HCT-116 cells assessed as necrotic cells at 1.25 uM measured after 48 hrs by Annexin-V Alexa Fluor488/propidium iodide staining based flow cytometry (reference value: 7.7%); format: functional
[38] = test system: HCT-116; assay: Induction of apoptosis in human HCT-116 cells assessed as viable cells at 2.5 uM measured after 48 hrs by Annexin-V Alexa Fluor488/propidium iodide staining based flow cytometry (reference value: 82.3%); format: functional; conditions: read-out: Activity
[39] = test system: HCT-116; assay: Induction of apoptosis in human HCT-116 cells assessed as late apoptotic cells at 2.5 uM measured after 48 hrs by Annexin-V Alexa Fluor488/propidium iodide staining based flow cytometry (reference value: 2.2%); format: functional
[40] = test system: HCT-116; assay: Induction of apoptosis in human HCT-116 cells assessed as viable cells at 5 uM measured after 48 hrs by Annexin-V Alexa Fluor488/propidium iodide staining based flow cytometry (reference value: 82.3%); format: functional; conditions: read-out: Activity
[41] = organism: Sus scrofa; assay: Induction of porcine brain tubulin polymerization at 10 uM measured at 30 secs interval for 60 mins by fluorescence assay; format: tissue-based
[42] = molecular target: Epithelial discoidin domain-containing receptor 1 (Homo sapiens, UniProt Q08345); assay: Inhibition of human DDR1 using KKSRGDYMTMQIG as substrate in presence of [gamma-33P]ATP by scintillation counting method
[43] = organism: Homo sapiens; assay: Selectivity ratio of IC50 for inhibition of human BRAF V600E mutant to IC50 for inhibition of human CRAF

Chain of Epithelial discoidin domain-containing receptor 1 (Q08345 whole entry, the tested form may be a part): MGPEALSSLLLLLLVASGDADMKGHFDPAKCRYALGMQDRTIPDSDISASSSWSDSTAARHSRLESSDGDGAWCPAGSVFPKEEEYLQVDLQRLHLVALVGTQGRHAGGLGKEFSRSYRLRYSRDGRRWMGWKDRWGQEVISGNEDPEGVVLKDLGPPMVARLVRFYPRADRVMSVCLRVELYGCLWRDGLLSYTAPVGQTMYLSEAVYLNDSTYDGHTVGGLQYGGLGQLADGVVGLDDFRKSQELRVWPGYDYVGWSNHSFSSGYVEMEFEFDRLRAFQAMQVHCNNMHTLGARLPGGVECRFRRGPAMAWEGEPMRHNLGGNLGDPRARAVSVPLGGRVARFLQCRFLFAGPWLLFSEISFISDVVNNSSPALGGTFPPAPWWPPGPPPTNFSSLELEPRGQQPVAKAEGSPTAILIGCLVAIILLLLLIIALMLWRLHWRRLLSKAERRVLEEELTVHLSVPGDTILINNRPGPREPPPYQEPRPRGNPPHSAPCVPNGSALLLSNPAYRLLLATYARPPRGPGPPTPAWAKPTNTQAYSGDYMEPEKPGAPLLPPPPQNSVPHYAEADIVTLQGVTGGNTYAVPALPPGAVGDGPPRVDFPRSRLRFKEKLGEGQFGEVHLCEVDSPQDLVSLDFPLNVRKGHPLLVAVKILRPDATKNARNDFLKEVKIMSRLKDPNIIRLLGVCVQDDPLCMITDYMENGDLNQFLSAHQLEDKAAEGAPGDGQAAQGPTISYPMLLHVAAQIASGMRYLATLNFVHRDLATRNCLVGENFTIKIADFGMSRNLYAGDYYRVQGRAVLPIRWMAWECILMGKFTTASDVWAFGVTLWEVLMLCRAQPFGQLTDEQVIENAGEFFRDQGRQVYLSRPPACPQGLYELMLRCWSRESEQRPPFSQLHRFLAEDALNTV

CCN1CCN(c2cc(C(=O)Nc3cccc(Nc4ccc5c(OC)cccc5n4)c3)cc(C(F)(F)F)c2)CC1
inhibition of growth at 10 µM [1]: 95% | inhibition of growth at 10 µM [2]: 194% | GI50 [3]: 3.82 µM | GI50 [4]: 0.616 µM | GI50 [5]: 0.883 µM | GI50 [6]: 3.07 µM | GI50 [7]: 1.26 µM | TGI [7]: 4.66 µM | CC50 [7]: 16.6 µM | GI50 [8]: 0.654 µM | GI50 [9]: 0.572 µM | TGI [9]: 1.21 µM | CC50 [9]: 2.56 µM | GI50 [10]: 1.71 µM | GI50 [11]: 3.28 µM | GI50 [12]: 1.05 µM | GI50 [13]: 1.36 µM | GI50 [14]: 0.78 µM | TGI [14]: 1.96 µM | CC50 [14]: 7.04 µM | GI50 [15]: 0.668 µM | TGI [15]: 1.65 µM | CC50 [15]: 5.86 µM | GI50 [16]: 5.3 µM | GI50 [17]: 0.846 µM | GI50 [18]: 3.41 µM | GI50 [19]: 4.6 µM | GI50 [20]: 3.73 µM | GI50 [21]: 0.917 µM | GI50 [22]: 0.918 µM | GI50 [23]: 3.47 µM | GI50 [24]: 0.746 µM | LC50 (concentration killing 50% of cells) [24]: 12.4 µM | TGI [24]: 3.88 µM | GI50 [25]: 1.8 µM | GI50 [26]: 3.61 µM | GI50 [27]: 2.05 µM | viability at 48 h, 1 µM [28]: 91.2% | viability at 48 h, 3 µM [29]: 76.8% | viability at 48 h, 10 µM [30]: 74.1% | viability at 1.25 µM [31]: 86.5% | Activity [32]: 15.6% | Activity [33]: 19.3% | Activity [34]: 0.6% | Activity [35]: 16.6% | Activity [36]: 0.4% | Activity [37]: 0.3% | viability at 2.5 µM [38]: 78.8% | Activity [39]: 1% | viability at 5 µM [40]: 72% | Activity [41]: Active | IC50 [42]: 0.538 µM | Ratio IC50 [43]: 2

COc1cccc2nc(Nc3cccc(NC(=O)c4ccc(N5CCN(C)CC5)c(C(F)(F)F)c4)c3)ccc12
inhibition of growth at 10 µM [1]: 86.8% | inhibition of growth at 10 µM [2]: 197% | GI50 [3]: 1.07 µM | GI50 [4]: 0.876 µM | GI50 [5]: 1.13 µM | GI50 [6]: 1.83 µM | GI50 [7]: 0.854 µM | TGI [7]: 4.03 µM | CC50 [7]: 18.8 µM | GI50 [8]: 0.909 µM | GI50 [9]: 0.712 µM | TGI [9]: 1.61 µM | CC50 [9]: 3.65 µM | GI50 [10]: 1.09 µM | GI50 [11]: 0.895 µM | GI50 [12]: 0.695 µM | GI50 [13]: 0.885 µM | GI50 [14]: 0.873 µM | TGI [14]: 1.57 µM | CC50 [14]: 2.83 µM | GI50 [15]: 0.899 µM | TGI [15]: 1.95 µM | CC50 [15]: 4.21 µM | GI50 [16]: 1.36 µM | GI50 [17]: 0.896 µM | GI50 [18]: 1.21 µM | GI50 [19]: 1.73 µM | GI50 [20]: 0.923 µM | GI50 [21]: 1.12 µM | GI50 [22]: 0.802 µM | GI50 [23]: 2.01 µM | GI50 [24]: 0.734 µM | LC50 (concentration killing 50% of cells) [24]: 3.04 µM | TGI [24]: 1.49 µM | GI50 [25]: 1.55 µM | GI50 [26]: 1.07 µM | GI50 [27]: 1 µM | viability at 48 h, 1 µM [28]: 97% | viability at 48 h, 3 µM [29]: 86.9% | viability at 48 h, 10 µM [30]: 77.1% | viability at 1.25 µM [31]: 82.7% | Activity [32]: 6.1% | Activity [33]: 7.9% | Activity [34]: 4.8% | Activity [35]: 14% | Activity [36]: 1.7% | Activity [37]: 2.7% | viability at 2.5 µM [38]: 79.5% | Activity [39]: 2% | viability at 5 µM [40]: 61.5% | Activity [41]: Active | IC50 [42]: 2.25 µM | Ratio IC50 [43]: 2
